Values joined by “and” are separate entries in the source; they are usually repeats but may differ in a detail not shown here. Equal values may be shown once. Active and inactive are the calls of the source.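 Rule for the calls: active = compounds giving half or more protection of infected cells from virus-caused growth loss, again on retest; inactive = the rest.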 *1 amine or outer side, *2 acyl side, *3 side chain or, on linkers, in order; H or OH if unused. Where a SMILES comes first, the peptide text is derived from it. [ ]: non-standard residue; d: D form. The star is where a group is joined. X3 = CC(=O)N(C)SCC(N[*:1])C(=O)[*:2]; Cbz = O=C(OCc1ccccc1)*; Bn = c1ccc(C*)cc1
System: CEM cells HIV-1 protection, formazan growth assay
Test: NCI AIDS Antiviral Assay
Conditions: for IC50: measured here: growth of uninfected CEM cells
Summary of the method: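 Human CEM cells, uninfected and HIV-1-infected, received five drug concentrations, and growth was read by soluble formazan assay. Compounds giving at least 50% protection were retested; reproducible 100% protection defined confirmed active.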

## CCC(C)C(NC(=O)C(N)CCC(=O)O)C(=O)NC(CCCCN)C(=O)NCC(=O)NC(C(=O)NC(C(=O)NC(CC(N)=O)C(=O)NC(CC(C)C)C(=O)NCC(=O)NC(CCCCN)C(=O)O)C(C)O)C(C)O (configuration not stated) (H-EIKGTTNLGK-OH; configuration not given here)
  outcome: inactive

## C[N+]12CN3CN(C1)S(=O)(=O)N(C3)C2
  outcome: inactive

## Cc1ccc2c(c1)sc1nnc(C)n12
  outcome: inactive

## Cc1ccc(C(=O)NC(C)(C)C)cc1N=NN(C)C
  EC50: > 138 µM
  IC50: > 138 µM

## OCC12COC(c3ccccc3)N1C(c1ccccc1)OC2 (configuration not stated)
  EC50: > 200 µM
  IC50: 11.2 µM

## Cc1ccc(N=C[N-]c2ccc(C)cc2)cc1.Cc1ccc(N=C[N-]c2ccc(C)cc2)cc1.O=C([O-])C(F)(F)F.O=C([O-])C(F)(F)F.[OH3+].[OH3+].[Rh+2].[Rh+2]
  EC50: > 14.1 µM
  IC50: > 14.1 µM

## COc1ccc2c(c1)CC[C@@H]1[C@@H]2CC[C@]2(C)C(=O)/C(=N/O)C[C@@H]12
  EC50: > 200 µM
  IC50: 8.51 µM

## COc1cc2c(cc1OC)C1CC(=O)C3=C(CCCC3)N1CC2 (configuration not stated)
  EC50: > 200 µM
  IC50: 91.2 µM

## CCOC(=O)C1=NN(c2ccccc2)C(=O)/C1=C\N1CC(=O)NC1=S
  EC50: > 200 µM
  IC50: > 100 µM

## FC(F)(Oc1ccc2ccccc2c1)c1nc2ccccc2o1
  EC50: > 200 µM
  IC50: 25.7 µM

## O=C(NCCCN1CCN(CCCNC(=O)c2ccc(N=Nc3ccccc3)cc2)CC1)c1ccc(N=Nc2ccccc2)cc1
  EC50: > 100 µM
  IC50: 53.7 µM

## COc1ccc(C2=C(Cl)c3cc(OC)c(OC)cc3C2OC)cc1OC (configuration not stated)
  EC50: > 26.3 µM
  IC50: > 26.3 µM

## CC1CCC2c3c([nH]c4ccccc34)C3C(=O)N(c4ccccc4)C(=O)C3C2C1 (configuration not stated)
  outcome: inactive

## Nc1ccc2ncc(NCc3ccc(F)cc3)nc2c1
  EC50: > 135 µM
  IC50: 69.2 µM

## O=C(O)C(NCc1ccccc1)C(NCc1ccccc1)C(=O)O (configuration not stated)
  EC50: > 200 µM
  IC50: > 200 µM

## CN(NC(=O)c1ccco1)C1=NCCCCN1
  EC50: > 200 µM
  IC50: > 200 µM

## O=C1C2c3[nH]c4ccccc4c3C3CCCCCC3C2C(=O)N1c1ccccc1 (configuration not stated)
  outcome: inactive

## COc1cccc(Nc2nc3c([nH]2)c(=O)n(C)c(=O)n3C)c1
  EC50: > 170 µM
  IC50: 89.1 µM

## Cc1ccc(/C=C(\NC(=O)c2ccccc2)c2nc3ccccc3[nH]2)cc1
  EC50: > 74.1 µM
  IC50: > 74.1 µM

## COc1cc(CCC(=O)CC(=O)CCc2ccc(O)c(OC)c2)ccc1O
  EC50: > 200 µM
  IC50: 34.7 µM

## O=C1N(C2CCCCC2)CC2(Cc3ccccc3)c3ccccc3NC12O (configuration not stated)
  EC50: > 20 µM
  IC50: > 20 µM

## COc1cccc(NC(=O)CC(=O)NN)c1
  EC50: > 200 µM
  IC50: > 200 µM

## Nc1ccc(C2CCC(C(=O)O)N2)cc1 (configuration not stated)
  EC50: > 200 µM
  IC50: > 200 µM

## Cc1ccc(C2(c3ccc(Cl)cc3)c3ccccc3C3=NCCN32)cc1 (configuration not stated)
  EC50: > 200 µM
  IC50: 11 µM

## N#CCN1c2ccccc2CCC1Cl (configuration not stated)
  EC50: > 200 µM
  IC50: > 200 µM

## Cc1cc(O)c2c(=O)c(=O)c2c1
  EC50: > 1550 µM
  IC50: 275 µM

## CNc1ccc(S(=O)Nc2ccc(OC)cc2)cc1 (configuration not stated)
  EC50: > 200 µM
  IC50: 17.8 µM

## C[n+]1c2ccccc2n2c3ccccc3c(NCCc3ccccn3)c(C#N)c21
  EC50: > 20 µM
  IC50: 1.29 µM

## O=c1[nH]cnc2c1ncn2C1CCC(CO)O1 (configuration not stated)
  EC50: 6.03 µM
  IC50: 50.1 µM

## Cc1ccc(S(=O)(=O)c2ccsc2NC(=O)c2ccccc2)cc1
  EC50: > 100 µM
  IC50: > 100 µM

## CCN1CCC(O)(/C=C/c2ccc(C(C)C)cc2)C(C(=O)/C=C/c2ccc(C(C)C)cc2)C1 (configuration not stated)
  EC50: > 200 µM
  IC50: 1.78 µM

## COc1cc(N)c2c(c1)SC(C)C(=O)N2 (configuration not stated)
  EC50: > 200 µM
  IC50: 186 µM

## CCOC(=O)C(=Cc1cccnc1C)C(=O)OCC
  EC50: > 692 µM
  IC50: 8.32 µM

## N#CC(C#N)=Cc1cccc([N+](=O)[O-])c1
  EC50: > 178 µM
  IC50: 15.5 µM

## O=C1OC(=O)C2C3CC(C4N=NN(c5ccccc5)C34)C12 (configuration not stated)
  EC50: > 200 µM
  IC50: > 200 µM

## CC(=O)Oc1cc(OC(C)=O)c2c(c1C)CC[C@@H]1[C@@H]2CC[C@]2(C)[C@@H](OC(C)=O)CC[C@@H]12
  EC50: > 200 µM
  IC50: 18.2 µM

## CC1(C)OC[C@@H](O)[C@H](Br)CO1
  EC50: > 200 µM
  IC50: 77.6 µM

## COc1ccc(N2C(=O)C3c4[nH]c5c(C)cccc5c4C4CCC(c5ccccc5)CC4C3C2=O)cc1 (configuration not stated)
  EC50: > 200 µM
  IC50: 60.3 µM

## Cc1nc2ccc(Br)cc2c(=O)n1-c1ccc(NC2OC(CO)C(O)C(O)C2O)cc1 (configuration not stated)
  EC50: > 200 µM
  IC50: > 200 µM and 195 µM

## CC(C)OP(=O)(OC(C)C)C([CH2][Sn]([CH3])([CH3])[Br])P(=O)(OC(C)C)OC(C)C
  EC50: > 200 µM
  IC50: 8.71 µM

## O=C(CCCc1cccc2[nH]c3c(c12)CN(Cc1ccccc1)CC3)c1ccc(F)cc1
  EC50: > 200 µM
  IC50: 14.5 µM

## Cc1cc(N=O)cc(C)c1O
  EC50: > 200 µM
  IC50: 5.13 µM

## N#CCCN(CCC#N)C(=O)Nc1cccc2ccccc12
  outcome: inactive

## NC(=O)c1ccc[c]([Sb](=[O])([OH])[OH])c1
  EC50: 10.5 µM
  IC50: 398 µM

## O=C1CN(C=C2C(=O)NC(=O)NC2=O)C(=S)N1
  EC50: > 200 µM
  IC50: > 200 µM

## CCN(CC)c1ccc(C(=C2C=CC(=[N+](CC)CC)C=C2)c2ccccc2)cc1
  outcome: inactive

## O=[N+]([O-])/C=C/COCc1cc2c(cc1Br)OCO2
  EC50: > 200 µM
  IC50: 9.33 µM

## O=C(O)C12C3CCCC1C2CC3 (configuration not stated)
  outcome: inactive

## CCOC(=O)/C(=C/c1ccc(N(C)C)cc1)N(CC)CC
  EC50: > 46.8 µM
  IC50: > 46.8 µM

## COc1cc2c3c(c1OC)-c1ccccc1C(C(OC(C)=O)c1ccccc1)C3N(C)CC2 (configuration not stated)
  outcome: inactive

## COc1ccc(OC)c(/C=C2\C=Cc3ccccc32)c1
  EC50: > 38 µM
  IC50: 6.46 µM

## Cc1nc2c(C#N)c3n(c2c(=O)o1)CCCC3
  EC50: > 200 µM
  IC50: > 200 µM

## Cc1cc(O)c2c(oc3cc(O)c4c(c32)COC4=O)c1C(=O)O
  EC50: > 56.2 µM
  IC50: 18.6 µM

## CC(=O)N(C)SCC(NC(=O)C(Cc1ccccc1)NC(=O)OCc1ccccc1)C(=O)NC(Cc1ccccc1)C(=O)NC(Cc1c[nH]c2ccccc12)C(=O)NC(CCCCNC(=O)OCc1ccccc1)C(=O)NC(C(=O)NC(CSN(C)C(C)=O)C(=O)NC(C(N)=O)C(C)OCc1ccccc1)C(C)OCc1ccccc1 (configuration not stated) (Cbz-F[X3]FWK(Cbz)T(Bn)[X3]T(Bn)-NH2; configuration not given here)
  EC50: 55 µM
  IC50: 85.1 µM

## CCN(CC)Cc1c(C(=O)NCCO)[n+](=O)c2ccccc2n1[O-]
  EC50: > 178 µM
  IC50: > 178 µM

## O=C(C(=O)n1ccc2ccccc21)c1c[nH]c2ccccc12
  EC50: > 200 µM
  IC50: > 200 µM

## O=[N+]([O-])c1ccc(C2=Nn3c(nnc3-c3ccccc3)SC2)o1
  outcome: inactive

## COc1cc2c(oc(=O)c3c4occc4cc(OC)c23)c2cccc(OCc3ccccc3)c12
  EC50: > 1.15 µM
  IC50: > 1.15 µM

## CC(=O)c1c2c(cc3c1CC1(C3)Cc3ccc4c(c3C1=O)CCC4)CCC2 (configuration not stated)
  EC50: > 200 µM
  IC50: 40.7 µM

## CC1=CC(=O)/C(=C/n2c(=S)sc3ccccc32)C(=O)O1
  EC50: > 200 µM
  IC50: > 200 µM

## Cc1cc2ccccc2oc(=O)/c1=N\Nc1ccccc1
  EC50: > 200 µM
  IC50: 34.7 µM

## Cc1ccc(S(=O)(=O)N[C@H](C(=O)O)c2ccccc2)cc1
  outcome: inactive

## O=Nc1[nH]c(O)c2ccccc12
  EC50: > 200 µM
  IC50: > 200 µM

## COc1ccc(S(=O)(=O)N(C)C)cc1C(=O)c1cc(S(=O)(=O)N(C)C)ccc1OC
  EC50: > 2.29 µM
  IC50: > 2.29 µM

## CC(=O)Nc1ccc(/C=c2\sc3nnc(CCC(=O)Nc4ccccc4Cl)n3c2=O)cc1
  EC50: > 28.8 µM
  IC50: > 28.8 µM

## NS(=O)(=O)c1cc2c(cc1Cl)NC(C(=O)c1cc(=O)c3ccc(O)cc3o1)=NS2(=O)=O
  EC50: > 513 µM
  IC50: > 513 µM

## O=C1OC(C2OC(=O)c3cc(O)c(O)c(O)c3-c3c(O)c(O)c4oc(=O)c5c(c(O)c(O)c6oc(=O)c3c4c65)-c3c(cc(O)c(O)c3O)C(=O)OCC2O)C2OC(=O)c3c(c(O)c(O)c(O)c3C2O)-c2c1cc(O)c(O)c2O (configuration not stated)
  EC50: 1.62 µM
  IC50: 12 µM

## COc1cc(C)c(Br)c2c1C(=O)C(Br)(Br)CC2
  EC50: > 200 µM
  IC50: 0.309 µM

## CC(C)CCS(=O)(=O)O
  EC50: > 200 µM
  IC50: > 200 µM

## O=C(O)CCNC(=O)OCc1ccccc1
  EC50: > 200 µM
  IC50: > 200 µM

## CCOC(=O)/C(C#N)=C/c1ccc(SCc2ccco2)c([N+](=O)[O-])c1
  EC50: > 200 µM
  IC50: > 200 µM

## O=C(NCCCCCCNC(=O)n1cc(F)c(=O)[nH]c1=O)NC1C(O)OC(CO)C(O)C1O (configuration not stated)
  outcome: inactive

## Clc1ccc(CN2COc3c(cc(Cl)c4cccnc34)C2)cc1
  EC50: > 64.6 µM
  IC50: 1.26 µM

## COc1ccc(-c2cc(-c3ccccc3)n(C3OC(COC(C)=O)C(OC(C)=O)C(OC(C)=O)C3OC(C)=O)c(=S)c2C#N)cc1 (configuration not stated)
  EC50: > 166 µM
  IC50: 32.4 µM

## CCc1nc(N)nc(N)c1-c1ccc(Cl)cc1
  EC50: > 1 µM
  IC50: 0.0372 µM

## Cc1cc(S(=O)(=O)Nc2n[nH]c(N)n2)c(Cl)cc1Cl
  EC50: > 200 µM
  IC50: > 200 µM

## C[C@H](OCc1ccccc1)C(=O)N1CCS(=O)(=O)N2CCC[C@@H]2C1=O
  EC50: > 490 µM
  IC50: > 490 µM

## CC(=O)NNc1nc(C)c(C(/C=C/c2ccc(Cl)cc2)=N/NC(=O)C[N+](C)(C)C)s1
  EC50: > 14.8 µM
  IC50: > 14.8 µM

## O=C(O)c1ccccc1NC(=O)C1CCCCC1
  outcome: inactive

## O=C(CCCc1ccccc1)NO
  outcome: inactive

## Cc1cc2c(cc1C)[n+]([O-])c(NCCCN(C)C)c(C#N)[n+]2[O-]
  EC50: > 200 µM
  IC50: 72.4 µM

## COc1ccc(N[C@H](CS(=O)c2ccc(C)cc2)C(F)(F)F)cc1 (some centres not stated)
  EC50: > 200 µM
  IC50: > 200 µM

## C1=CC2CCC1C1CN(CCCN3CCOCC3)CC21 (configuration not stated)
  EC50: > 708 µM
  IC50: > 708 µM

## CN(C)P(=O)(OP(=O)(N(C)C)N(C)C)N(C)C
  EC50: > 200 µM
  IC50: > 200 µM

## COC1(OC)CC2C=C(S(=O)(=O)c3ccccc3)C1N(Cc1ccccc1)C2=O (configuration not stated)
  outcome: inactive

## Cc1ccc(C(=O)N(Cc2ccccc2)Cc2ccccc2)cc1N=NN(C)C
  EC50: > 9.77 µM
  IC50: > 9.77 µM
